Assay results: paper PMC2542349, “Pharmacokinetic and metabolic effects of American ginseng (Panax quinquefolius) in healthy volunteers receiving the HIV protease inhibitor indinavir” (BMC Complementary and Alternative Medicine, 2008)
Values joined by “and” are separate entries in the source; they are usually repeats but may differ in a detail not shown here. Equal values may be shown once. Read-outs that look alike come from different tables or passages of the source.

Tests used:
[1] = test system: healthy volunteers; test: Hyperinsulinemic euglycemic clamp (glucose utilization M, insulin sensitivity M/I); assay type: in vivo, human
Experimental: Peripheral sensitivity to glucose was assessed by the hyperinsulinemic euglycemic clamp technique. Subjects were admitted to the GCRC in the afternoon prior to the clamp procedure and maintained on a eucaloric diet (50% carbohydrate, 30% fat, and 20% protein). After an overnight fast, an intravenous catheter was placed in the antecubital vein for infusion of glucose and insulin. A second catheter for blood sampling was inserted in a dorsal vein of the hand in a retrograde fashion. The hand was placed into a 50°C warming box to "arterialize" the samples [20]. After baseline blood samples were obtained, a primed, continuous infusion of regular insulin (40 mU/m^2/min) was started, followed by a constant infusion of 20% dextrose at a variable rate, based on 5-minute measurements of blood glucose, in order to maintain blood glucose concentrations at each subject's baseline level ± 5%. Infusion continued for a total of 180 minutes.
Glucose utilization (M) was calculated as the average glucose infusion rate (milligrams of glucose/kilograms of FFM/minute) during the last 60 minutes of the infusion (i.e. steady state portion). FFM was derived from the baseline evaluation by dual energy X-ray absorptiometry (DXA).
During the final 60 minutes of the insulin clamp procedure, samples were obtained at 10 minutes intervals to determine insulin concentrations. M divided by the average insulin concentration in the final 60 minutes (I), which represents the amount of glucose metabolized per unit of insulin, was used as the primary measure of insulin sensitivity. […] Fasting serum glucose and homeostasis model assessment of insulin resistance (HOMA-IR), a widely used marker of insulin sensitivity, were assessed prior to the insulin clamp procedure at each of the inpatient study visits.
We then multiplied this value by 10^6 for ease of interpretation.

[2] = test system: healthy volunteers; test: Fasting serum glucose, HOMA-IR and body weight at inpatient visits; assay type: in vivo, human
Experimental: Body composition, including fat-free mass (FFM), was assessed at baseline using dual x-ray absorptiometry (Hologic-QDR 4500W, Hologic Co, Bedford, MA, intra-subject CV < 2%). BMI was assessed during each inpatient admission and was calculated as the weight in kilograms/height in meters squared.
During the final 60 minutes of the insulin clamp procedure, samples were obtained at 10 minutes intervals to determine insulin concentrations. M divided by the average insulin concentration in the final 60 minutes (I), which represents the amount of glucose metabolized per unit of insulin, was used as the primary measure of insulin sensitivity. During the second and third inpatient visits, the morning dose of IDV (and AG for the third inpatient visit) was given immediately prior to the beginning of the insulin clamp procedure. Fasting serum glucose and homeostasis model assessment of insulin resistance (HOMA-IR), a widely used marker of insulin sensitivity, were assessed prior to the insulin clamp procedure at each of the inpatient study visits.

[3] = test system: healthy volunteers; test: Safety assessment in healthy volunteers; assay type: in vivo, human
Source text: There were no serious adverse events. Three subjects developed transaminitis. In one subject (as previously mentioned), an AST elevation 3 times the upper limit of normal (Grade 2) after 3 days of IDV required study discontinuation. Three subjects were noted to have mild elevations in bilirubin. […] One patient reported an episode of vomiting and one subject reported dyspepsia after dose administration. All laboratory abnormalities and symptoms normalized after discontinuation of the study drugs. With the exception of the Grade 2 transaminites, all adverse events occurred during the co-administration of IDV and AG.

[4] = for Cmin: GM (95%CI)
[5] = test system: healthy volunteers; settings: cited from earlier work
[6] = clinical; settings: human, plasma, oral

With CC(C)(C)NC(=O)[C@@H]1CN(Cc2cccnc2)CCN1C[C@@H](O)C[C@@H](Cc1ccccc1)C(=O)N[C@H]1c2ccccc2C[C@H]1O [IDV, Indinavir] the “average decrease in insulin sensitivity (M/I) compared to baseline” value ([1]; after 3 days of IDV 800 mg q8h, n = 11, p = 0.03) was 14.8 ± 5.9% and 15%, the “insulin sensitivity (M/I), mean” value ([1]; after 3 days of IDV, n = 11, mean ± SEM, baseline 0.113 ± 0.012) was 0.096 ± 0.014 mg/kg FFM/min per μU/ml of insulin and the “average glucose utilization (M)” value ([1]; after 3 days of IDV, n = 11, mean ± SEM, baseline 7.73 ± 0.75, p = 0.005) was 6.32 ± 0.78 mg/kg FFM/min. The “M/I divided by the IDV AUC2–3 (insulin sensitivity per unit of plasma IDV)” value ([1]; post hoc, 10 subjects, IDV alone vs IDV + AG, p = 0.03) was 60.9 ± 15.4 mg Glucose·10^6/kg FFM/min/μU/ml of insulin/ng·hr/mL IDV, the “M (multiplied times 10^6) divided by the IDV AUC2–3” value ([1]; post hoc, 10 subjects, IDV alone vs IDV plus AG, p = 0.05) was 4240.6 ± 1180.0 mg Glucose·10^6/kg FFM/min/ng·hr/mL IDV and the “Glucose utilization (M), mean” value ([1]; second (IDV alone) vs third (IDV + AG) clamp, ten subjects, mean ± SEM, p = 0.62) was 6.68 ± 0.76 mg/kg FFM/min. For the same compound, the “insulin sensitivity (M/I), mean” value ([1]; second (IDV alone) vs third (IDV + AG) clamp, ten subjects, mean ± SEM, p = 0.72) was 0.102 ± 0.013 mg/kg FFM/min per μU/ml of insulin, the Fasting glucose ([2]; before vs after 2 weeks of AG, p = 0.65) was 93.0 ± 1.4 mg/dL and the HOMA-IR ([2]; before vs after 2 weeks of AG, p = 0.95) was 1.4± 0.25. For the same compound, the HOMA-IR ([2]; second admission (after 3 days IDV), baseline 1.34 ± 0.32, p = 0.97) was 1.34 ± 0.23, the Fasting glucose ([2]; second admission (after 3 days IDV), baseline 92.4 ± 1.8, p = 0.27) was 95.0 ± 2.4 mg/dL and the tolerability ([3]; healthy volunteers) was “well tolerated”. The AST elevation ([3]; one subject, Grade 2, after 3 days of IDV, required study discontinuation) was 3 times the upper limit of normal, the “difference in IDV AUC2–3 (IDV alone vs IDV and AG)” value ([4]; 10 subjects, p = 0.22) was 430 ± 330 ng·h/mL and the Cmin ([4]; IDV + AG (Day 22), n = 13) was 62.78 (39.72–99.24) ng/mL. For the same compound, the Cmin ([4]; IDV alone (Day 7), n = 13) was 61.97 (42.72–89.88) ng/mL, the “AUC0–8 Day 22/Day 7 Geometric Mean Ratio (90% CI)” value ([4]; IDV with vs without AG, n = 13) was 0.89 (0.72–1.08) and the “Cmax Day 22/Day 7 Geometric Mean Ratio (90% CI)” value ([4]; IDV with vs without AG, n = 13) was 1.00 (0.77–1.29). The “tmax Day 22/Day 7 Geometric Mean Ratio (90% CI)” value ([4]; IDV with vs without AG, n = 13) was 0.75 (0.53–1.06), the “decrease in insulin sensitivity” value ([5]; healthy volunteers, IDV 800 mg q 8 hours) was 17% and the “decrease in insulin sensitivity” value ([5]; single dose of 1200 mg) was 34%. For the same compound, the AUC [6] was 1920 ± 483 ng·h/mL, the AUC ([6]; 800 mg) was 2350 ± 389 ng·h/mL and the Cmax ([6]; 800 mg) was 5620 ng/mL. The Tmax ([6]; 800 mg) was 58.8 min.
